# Source: patent publication EP0283151A2, “Prostaglandins useful for lowering intraocular pressure” (ALLERGAN, INC, priority 1987, dated 1988)
# Marks after values point to notes of the source that are not given here.
# How the values were obtained:
# [1] = Duration of IOP-lowering action in cats after topical application; type: in vivo; set-up: unit not given here; conditions: topical 0.1%, 25μL
# Procedure: (§1) The ocular hypotensive activity of these compounds was measured by applanation pneumatonometry.
# The duration of action of the triester (9,11,15-triacetyl ester) in comparison with that of the native PGF2α was tested in cats.
# [2] = IOP effects in conscious rabbits, applanation pneumatonometry; type: in vivo, New Zealand-Dutch Belt cross rabbits; set-up: IOP (Test): unit not given here; conditions: for IOP (Test): treated eye; for concentration having the same effect in lowering intraocular pressure: solution applied to the eye
# Procedure: as §1
# The effect of 0.1 percent PGF2α on IOP versus 0.01% solution of the 9,11,15 triacetyl ester of PGF2α was measured in New Zealand-Dutch Belt cross rabbits. Intraocular pressure was measured by applanation pneumatonometry in conscious animals. Nine animals were used for each experiment. The data from this study as summarized in Table I show about a 10-fold difference in the activity of 9,11,15-triacetyl PGF2α compound over PGF2α.
SMILES,Test IOP ([1]; 0.0 hours),Test IOP ([1]; 0.5 hours),Test IOP ([1]; 1.0 hours),Test IOP ([1]; 2.0 hours),Test IOP ([1]; 3.0 hours),Test IOP ([1]; 4.0 hours),Test IOP ([1]; 6.0 hours),Test IOP ([1]; 24.0 hours),Test IOP ([1]; -0.5 hours),concentration having the same effect in lowering intraocular pressure [2],further results
"CCCCC[C@H](O)/C=C/[C@@H]1[C@@H](C/C=C\CCCC(=O)O)[C@@H](O)C[C@H]1O [PGF2α, reference compound]",19.8,18.2,15.4*,14.5*,15.3*,16.7*,21.5,19.8,19.7,0.1%,"IOP (Test) ([2]; rabbits, 0.1% solution, 0 hours): 21.67; IOP (Test) ([2]; rabbits, 0.1% solution, 0.5 hours): 23.00; IOP (Test) ([2]; rabbits, 0.1% solution, 1.0 hours): 24.00; IOP (Test) ([2]; rabbits, 0.1% solution, 1.5 hours): 24.35; IOP (Test) ([2]; rabbits, 0.1% solution, 2.0 hours): 22.67; IOP (Test) ([2]; rabbits, 0.1% solution, 2.5 hours): 20.92; IOP (Test) ([2]; rabbits, 0.1% solution, 3.5 hours): 19.50*; IOP (Test) ([2]; rabbits, 0.1% solution, 4.5 hours): 20.75"
"CCCCC[C@@H](/C=C/[C@H]1C(OC(C)=O)C[C@H](OC(C)=O)[C@@H]1C/C=C\CCCC(=O)O)OC(C)=O (stereo partly drawn) [Triester, (5Z,9α,13E,15S)-9,11,15-triacetoxyprosta-5,13-dienoic acid]",20.6,18.6,17.9*,17.0*,18.0*,17.8*,18.8*,20.0*,21.2,0.01%,"IOP (Test) ([2]; rabbits, 0.01% solution, 0 hours): 24.39; IOP (Test) ([2]; rabbits, 0.01% solution, 0.5 hours): 24.67; IOP (Test) ([2]; rabbits, 0.01% solution, 1.0 hours): 23.56; IOP (Test) ([2]; rabbits, 0.01% solution, 1.5 hours): 22.72*; IOP (Test) ([2]; rabbits, 0.01% solution, 2.0 hours): 21.33*; IOP (Test) ([2]; rabbits, 0.01% solution, 2.5 hours): 20.83*; IOP (Test) ([2]; rabbits, 0.01% solution, 3.5 hours): 22.22*; IOP (Test) ([2]; rabbits, 0.01% solution, 4.5 hours): 23.28; increase in potency in terms of lowering IOP compared to PGF2α ([2]; rabbits, 0.01% triacetyl ester versus 0.1% PGF2α): ~10 fold"
